Test results from PMC7226869 (ACS Omega, 2020).
Where two headings read alike, the source gives them in different places.

Tests used:
[1] = target: T1, New Delhi metallo-β-lactamase-1 (NDM-1) (Klebsiella pneumoniae, UniProt E9NWK5); assay: imipenem hydrolysis by purified NDM-1; type: biochemical
[2] = target: T1, New Delhi metallo-β-lactamase-1 (NDM-1); assay: 1H-15N HSQC NMR titration; type: binding
[3] = target: OXA-48 (Klebsiella pneumoniae, UniProt Q6XEC0); assay: carbapenemase inhibition at a single concentration; type: biochemical; conditions: read-out: % inhibition at 50 μM
OXA-48, sequence (Q6XEC0 23-265 limits assumed): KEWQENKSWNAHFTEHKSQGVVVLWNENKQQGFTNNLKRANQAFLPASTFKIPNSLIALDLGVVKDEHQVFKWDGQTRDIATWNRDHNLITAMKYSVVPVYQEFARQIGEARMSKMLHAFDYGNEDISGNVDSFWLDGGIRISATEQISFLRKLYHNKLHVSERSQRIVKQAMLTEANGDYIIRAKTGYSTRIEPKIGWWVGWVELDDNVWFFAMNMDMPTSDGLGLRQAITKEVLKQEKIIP

[4] = target: KPC-2 (Klebsiella pneumoniae, UniProt Q93LQ9); assay: carbapenemase inhibition at a single concentration; type: biochemical; conditions: read-out: % inhibition at 50 μM
[5] = target: T1, New Delhi metallo-β-lactamase-1 (NDM-1); assay: imipenem hydrolysis by purified NDM-1; type: biochemical; remark: listed apart in the source

`O=c1c(O)c(-c2ccc(O)c(O)c2)oc2cc(O)cc(O)c12` [quercetin] gave an IC50 [1] of 5 to 10 µM.
`O=c1c(O)c(-c2ccc(O)cc2O)oc2cc(O)cc(O)c12` [morin] gave a Kd [2] of roughly 300 µM.
For `O=c1c(O)c(-c2cc(O)c(O)c(O)c2)oc2cc(O)cc(O)c12` [myricetin], the inhibition at 50 µM [3] was 90%, the inhibition at 50 µM [4] was 78% and the IC50 [5] was 3.3 µM.
